# Biological target: T1, Kv1.3 (Homo sapiens, UniProt P22001)
# T1 construct: expressed in transfected cells; host or cells: CHO (Kv1.3/CHO)
# Experiment: Electrophysiology: planar patch-clamp of Kv1.3 currents, IC50 from steady state current amplitude
# Type: cell-based
# Conditions: Kv1.3 electrophysiology, results according to Method D1, read-out: IC50 (Kv1.3 ephys steady state)
# Description: The inhibition data shown for the compounds of the list below was calculated using the steady state current amplitude at the end of the depolarising pulse in patch clamp evaluations (as described in the Biology Protocols: 1. Electrophysiology).
# Kv1.x currents were measured in Kv1.3/CHO or Kv1.5/CHO cells using a planar electrode version (Nanion Technologies GMBH) of the patch-clamp technique. Whole-cell Kv1.x current transients were evoked by 500 ms depolarising voltage pulses to +40 mV from a holding potential of −80 mV applied at 10 s intervals for Kv1.5 and at 30 s intervals for Kv1.3 to allow adequate time for recovery from inactivation. Cells were continuously bathed in a buffered saline solution containing (mM): 160 NaCl, 4.5 KCl, 2 CaCl2, 1 MgCl2, 5 glucose, 10 HEPES, pH 7.4, 290-310 mOsm·Kg^−1. The internal (pipette) solution contained (mM): 10 NaCl, 70 KF, 75 KCl, 2 MgCl2, 10 HEPES, 10 EGTA, pH 7.2, 290-310 mOsm·Kg^−1. Series resistance compensation (60-80%) was applied to cells in which the peak current amplitude exceeded 2 nA.
# Compound Preparation and Potency Assessment
# Compounds were initially dissolved in DMSO to 10 mM. After further dilution in DMSO, compounds were finally diluted in bath solution 1/200 (to give a final DMSO concentration of 0.5%) and applied directly to the recording chamber. Compounds were added at increasing concentrations allowing ample time for steady state block to be achieved between each concentration. Each compound was tested at 5-6 different concentrations on 2-3 cells. Compound IC50 values were determined by fitting the average normalised reduction of either the current integral or the steady state current amplitude at the end of the 500 ms depolarising pulse obtained at each compound concentration to the Hill equation. The IC50 data reported herein is based on the steady state calculation.
# T1 sequence (P22001 whole entry): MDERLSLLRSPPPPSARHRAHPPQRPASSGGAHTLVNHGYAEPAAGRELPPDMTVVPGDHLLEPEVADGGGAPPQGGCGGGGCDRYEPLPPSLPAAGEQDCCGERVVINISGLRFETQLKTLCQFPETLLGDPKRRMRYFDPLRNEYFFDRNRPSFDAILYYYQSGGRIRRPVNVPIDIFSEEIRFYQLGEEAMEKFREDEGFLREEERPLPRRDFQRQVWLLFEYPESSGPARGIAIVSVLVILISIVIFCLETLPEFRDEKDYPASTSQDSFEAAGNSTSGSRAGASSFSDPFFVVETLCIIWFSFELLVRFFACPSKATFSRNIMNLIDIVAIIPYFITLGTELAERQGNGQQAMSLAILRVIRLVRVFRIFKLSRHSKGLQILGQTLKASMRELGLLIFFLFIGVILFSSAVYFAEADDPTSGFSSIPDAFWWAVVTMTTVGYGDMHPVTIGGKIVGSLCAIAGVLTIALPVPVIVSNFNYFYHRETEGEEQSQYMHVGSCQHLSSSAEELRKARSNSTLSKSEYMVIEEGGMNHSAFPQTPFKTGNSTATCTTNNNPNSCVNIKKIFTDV
row,IC50,Structure (SMILES)
1,50 to 200 nM,CC(C)C(c1ccc(OC(F)F)cc1)N(Cc1ccc(F)cn1)C(=O)C1CC1c1ccc(F)cc1F (stereo not drawn) [Example 115]
2,200 to 1000 nM,CCC(c1ccc(S(=O)(=O)CC)cc1)N(Cc1ccc(F)cn1)C(=O)C1CC1c1ccc(F)cc1 (stereo not drawn) [Example 116]
3,50 to 200 nM,CCC(c1ccc(S(=O)(=O)CC)cc1)N(Cc1ccc(F)cn1)C(=O)C1CC1c1ccc(F)cc1 (stereo not drawn) [Example 117]
4,1000 to 2000 nM,CCC(c1ccc(S(=O)(=O)CC)cc1)N(Cc1cccnn1)C(=O)C1CC1c1ccc(F)cc1 (stereo not drawn) [Example 118]
5,50 to 200 nM,CCC(c1ccc(S(=O)(=O)CC)cc1)N(Cc1ccc(C(F)(F)F)nc1)C(=O)C1CC1c1ccc(F)cc1F (stereo not drawn) [Example 119]
6,200 to 1000 nM,CCC(c1ccc(S(C)(=O)=O)cc1)N(Cc1ccc(C(F)(F)F)nc1)C(=O)C1CC1c1ccc(F)cc1 (stereo not drawn) [Example 120]
7,50 to 200 nM,CCC(c1ccc(S(C)(=O)=O)cc1)N(Cc1ccc(C(F)(F)F)nc1)C(=O)C1CC1c1ccc(F)cc1 (stereo not drawn) [Example 121]
8,50 to 200 nM,CCC(c1ccc(S(C)(=O)=O)cc1)N(Cc1ccc(F)cn1)C(=O)C1CC1c1ccc(F)cc1 (stereo not drawn) [Example 122]
9,200 to 1000 nM,CC(c1ccc(S(C)(=O)=O)cc1)N(Cc1cccnn1)C(=O)C1CC1c1ccc(F)cc1 (stereo not drawn) [Example 123]
10,200 to 1000 nM,CCC(c1ccc(S(C)(=O)=O)cc1)N(Cc1cccnn1)C(=O)C1CC1c1ccc(F)cc1 (stereo not drawn) [Example 124]
11,1000 to 2000 nM,CCC(c1ccc(S(C)(=O)=O)cc1)N(Cc1cccnn1)C(=O)C1CC1c1ccc(F)cc1 (stereo not drawn) [Example 125]
12,200 to 1000 nM,CC(c1ccc(S(C)(=O)=O)cc1)N(Cc1ccc(C(F)(F)F)nc1)C(=O)C1CC1c1ccc(F)cc1 (stereo not drawn) [Example 126]
13,50 to 200 nM,CCC(c1ccc(S(C)(=O)=O)cc1)N(Cc1ccc(C(F)(F)F)nc1)C(=O)C1CC1c1ccc(F)cc1F (stereo not drawn) [Example 127]
14,50 to 200 nM,CCC(c1ccc(S(C)(=O)=O)cc1)N(Cc1ccc(C(F)(F)F)nc1)C(=O)C1CC1c1ccc(F)cc1F (stereo not drawn) [Example 128]
15,50 to 200 nM,CCC(c1ccc(S(C)(=O)=O)cc1)N(Cc1ccc(C(F)(F)F)nc1)C(=O)C1CC1c1ccc(F)cc1F (stereo not drawn) [Example 129]
16,200 to 1000 nM,CCC(c1ccc(S(=O)(=O)C(C)C)cc1)N(Cc1cccnn1)C(=O)C1CC1c1ccc(F)cc1 (stereo not drawn) [Example 130]
17,1000 to 2000 nM,CN1CCC(C(c2ccc(OC(F)F)cc2)N(C(=O)C2CC2c2ccc(F)cc2)C2CCOCC2)CC1 (stereo not drawn) [Example 140]
18,200 to 1000 nM,CN1CCC(C(c2ccc(OC(F)F)cc2)N(Cc2ccc(F)cn2)C(=O)C2CC2c2ccc(F)cc2)CC1 (stereo not drawn) [Example 142]
19,200 to 1000 nM,CCS(=O)(=O)c1cccc(C(C2CCN(C)CC2)N(Cc2ccc(F)cn2)C(=O)C2CC2c2ccc(F)cc2)c1 (stereo not drawn) [Example 143]
20,200 to 1000 nM,CN1CCC(C(c2ccc(F)cc2F)N(Cc2ccc(F)cn2)C(=O)C2CC2c2ccc(F)cc2)CC1 (stereo not drawn) [Example 144]
21,200 to 1000 nM,CN1CCC(C(c2ccc(F)cc2F)N(Cc2ncccc2F)C(=O)C2CC2c2ccc(F)cc2)CC1 (stereo not drawn) [Example 145]

row,IC50,Structure (SMILES)
1,200 to 1000 nM,CN1CCC(C(c2cccc(C(F)(F)F)c2)N(Cc2ccc(F)cn2)C(=O)C2CC2c2ccc(F)cc2)CC1 (stereo not drawn) [Example 146]
2,200 to 1000 nM,CN1CCC(C(c2cccc(C(F)(F)F)c2)N(Cc2ccc(F)cn2)C(=O)C2CC2c2ccc(F)cc2)CC1 (stereo not drawn) [Example 147]
3,200 to 1000 nM,CN1CCC(C(c2cccc(C(F)(F)F)c2)N(Cc2cncc(F)c2)C(=O)C2CC2c2ccc(F)cc2)CC1 (stereo not drawn) [Example 148]
4,200 to 1000 nM,CN1CC(C(c2ccc(OC(F)F)cc2)N(Cc2ncccc2F)C(=O)C2CC2c2ccc(F)cc2)C1 (stereo not drawn) [Example 150]
5,200 to 1000 nM,CN1CC(C(c2ccc(OC(F)F)cc2)N(Cc2ncccc2F)C(=O)C2CC2c2ccc(F)cc2)C1 (stereo not drawn) [Example 151]
6,200 to 1000 nM,O=C(C1CC1c1ccc(F)cc1)N(Cc1ccc(F)cn1)C(c1ccc(OC(F)F)cc1)C1CNC1 (stereo not drawn) [Example 152]
7,1000 to 2000 nM,O=C(C1CC1c1ccc(F)cc1)N(Cc1ccc(F)cn1)C(c1ccc(OC(F)F)cc1)C1CNC1 (stereo not drawn) [Example 153]
8,200 to 1000 nM,CN1CC(C(c2ccc(OC(F)F)cc2)N(Cc2ccc(F)cn2)C(=O)C2CC2c2ccc(F)cc2)C1 (stereo not drawn) [Example 154]
9,200 to 1000 nM,CN1CC(C(c2ccc(F)cc2)N(Cc2ncccc2F)C(=O)C2CC2c2ccc(F)cc2)C1 (stereo not drawn) [Example 155]
10,50 to 200 nM,CN1CC(C(c2ccc(F)cc2)N(Cc2ncccc2F)C(=O)C2CC2c2ccc(F)cc2)C1 (stereo not drawn) [Example 156]
11,200 to 1000 nM,O=C(C1CC1c1ccc(F)cc1)N(Cc1ncccc1F)C(c1ccc(F)cc1)C1CNC1 (stereo not drawn) [Example 157]
12,200 to 1000 nM,O=C(C1CC1c1ccc(F)cc1)N(Cc1ccc(F)cn1)C(c1ccc(F)cc1)C1CNC1 (stereo not drawn) [Example 158]
13,200 to 1000 nM,CN1CC(C(c2ccc(OC(F)(F)F)cc2)N(Cc2ccc(F)cn2)C(=O)C2CC2c2ccc(F)cc2)C1 (stereo not drawn) [Example 159]
14,200 to 1000 nM,CN1CC(C(c2ccc(OC(F)F)cc2)N(Cc2ccc(C(F)(F)F)cn2)C(=O)C2CC2c2ccc(F)cc2)C1 (stereo not drawn) [Example 160]
15,200 to 1000 nM,CN1CC(C(c2ccc(OC(F)F)cc2)N(Cc2ccc(C(F)(F)F)cn2)C(=O)C2CC2c2ccc(F)cc2)C1 (stereo not drawn) [Example 161]
16,200 to 1000 nM,CN1CC(C(c2ccc(OC(F)(F)F)cc2)N(Cc2cncc(F)c2)C(=O)C2CC2c2ccc(F)cc2)C1 (stereo not drawn) [Example 162]
17,200 to 1000 nM,CN1CC(C(c2ccc(OC(F)(F)F)cc2)N(Cc2cncc(F)c2)C(=O)C2CC2c2ccc(F)cc2)C1 (stereo not drawn) [Example 163]
18,200 to 1000 nM,O=C(C1CC1c1ccc(F)cc1)N(Cc1ncccc1F)C(c1ccc(F)cc1)C1CCOC1 (stereo not drawn) [Example 171]
19,50 to 200 nM,O=C(C1CC1c1ccc(F)cc1)N(Cc1ncccc1F)C(c1ccc(F)cc1)C1CCOC1 (stereo not drawn) [Example 172]
20,50 to 200 nM,O=C(C1CC1c1ccc(F)cc1)N(Cc1cccnn1)C(c1ccc(F)cc1)C1CCOC1 (stereo not drawn) [Example 173]
21,50 to 200 nM,O=C(C1CC1c1ccc(F)cc1)N(Cc1cccnn1)C(c1ccc(F)cc1)C1CCOC1 (stereo not drawn) [Example 174]

row,IC50,Structure (SMILES)
1,200 to 1000 nM,O=C(C1CC1c1ccc(F)cc1)N(Cc1ccc(F)cn1)C(c1ccc(F)cc1)C1CCOC1 (stereo not drawn) [Example 175]
2,50 to 200 nM,O=C(C1CC1c1ccc(F)cc1)N(Cc1ccc(F)cn1)C(c1ccc(F)cc1)C1CCOC1 (stereo not drawn) [Example 176]
3,50 to 200 nM,O=C(C1CC1c1ccc(F)c(F)c1)N(Cc1cccnn1)C(c1ccc(OC(F)F)cc1)C1CC1 (stereo not drawn) [Example 180]
4,50 to 200 nM,O=C(C1CC1c1ccc(F)cc1F)N(Cc1cccnn1)C(c1ccc(OC(F)F)cc1)C1CC1 (stereo not drawn) [Example 182]
5,200 to 1000 nM,O=C(C1CC1c1ccc(F)cc1)N(Cc1cnc[nH]1)C(c1ccc(OC(F)F)cc1)C1CC1 (stereo not drawn) [Example 183]
6,200 to 1000 nM,O=C(C1CC1c1cccc(C(F)(F)F)c1)N(Cc1cccnn1)C(c1ccc(OC(F)F)cc1)C1CC1 (stereo not drawn) [Example 184]
7,200 to 1000 nM,O=C(C1CC1c1ccc(F)cc1)N(CCN1CCCC(F)(F)C1)C(c1ccc(OC(F)F)cc1)C1CC1 (stereo not drawn) [Example 186]
8,200 to 1000 nM,Cn1ccnc1CN(C(=O)C1CC1c1ccc(F)cc1)C(c1ccc(OC(F)F)cc1)C1CC1 (stereo not drawn) [Example 187]
9,50 to 200 nM,O=C(C1CC1c1ccccc1OC(F)(F)F)N(Cc1cccnn1)C(c1ccc(OC(F)F)cc1)C1CC1 (stereo not drawn) [Example 188]
10,200 to 1000 nM,Cn1cncc1CN(C(=O)C1CC1c1ccc(F)cc1)C(c1ccc(OC(F)F)cc1)C1CC1 (stereo not drawn) [Example 189]
11,< 50 nM,Cn1cc(CN(C(=O)C2CC2c2ccc(F)cc2)C(c2ccc(OC(F)F)cc2)C2CC2)cn1 (stereo not drawn) [Example 190]
12,50 to 200 nM,CCS(=O)(=O)c1cccc(C(C2CC2)N(CC(F)(F)c2ccccn2)C(=O)C2CC2c2ccc(F)cc2)c1 (stereo not drawn) [Example 191]
13,200 to 1000 nM,CCS(=O)(=O)c1cccc(C(C2CC2)N(Cc2ccncn2)C(=O)C2CC2c2ccc(F)cc2)c1 (stereo not drawn) [Example 192]
14,50 to 200 nM,CCS(=O)(=O)c1cccc(C(C2CC2)N(Cc2ccc(F)cn2)C(=O)C2CC2c2ccc(F)cc2F)c1 (stereo not drawn) [Example 193]
15,50 to 200 nM,CCS(=O)(=O)c1cccc(C(C2CC2)N(Cc2ccc(F)cn2)C(=O)C2CC2c2ccc(F)cc2F)c1 (stereo not drawn) [Example 196]
16,50 to 200 nM,CCS(=O)(=O)c1cccc(C(C2CC2)N(Cc2ccc(F)cn2)C(=O)C2CC2c2ccc(F)c(F)c2)c1 (stereo not drawn) [Example 197]
17,50 to 200 nM,CCS(=O)(=O)c1cccc(C(C2CC2)N(Cc2ccc(F)cn2)C(=O)C2CC2c2cccc(C(F)(F)F)c2)c1 (stereo not drawn) [Example 212]
18,50 to 200 nM,CCS(=O)(=O)c1cccc(C(C2CC2)N(Cc2cncc(F)c2)C(=O)C2CC2c2ccc(F)cc2)c1 (stereo not drawn) [Example 214]
19,50 to 200 nM,CCS(=O)(=O)c1cccc(C(C2CC2)N(Cc2ccc(F)cn2)C(=O)C2CC2c2ccc(F)cc2)c1 (stereo not drawn) [Example 215]
20,50 to 200 nM,CCS(=O)(=O)c1cccc(C(C2CC2)N(Cc2ccccn2)C(=O)C2CC2c2cccc(C(F)(F)F)c2)c1 (stereo not drawn) [Example 216]
21,50 to 200 nM,CCS(=O)(=O)c1cccc(C(C2CC2)N(Cc2ccccn2)C(=O)C2CC2c2cccc(C(F)(F)F)c2)c1 (stereo not drawn) [Example 217]
